Experimental data taken from PubChem BioAssay AID330 (DTP/NCI, 2004).
Values joined by “and” are separate entries in the source; they are usually repeats but may differ in a detail not shown here. Equal entries are not always repeated. Inconclusive results and toxic doses are left out. The calls were made as follows: active = survival T/C of 150% or more; inactive = T/C below 125% in these data. Peptide text beside a SMILES is read from it.

System: P388 leukemia ip, CD2F1 mice, survival T/C
Test: NCI In Vivo Anticancer Drug Screen. Data for tumor model P388 Leukemia (intraperitoneal) in CD2F1 (CDF1) mice
Conditions: endpoint: median survival time, higher = longer survival
Summary of the method: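 Mice carrying the transplanted tumor received test compound or vehicle. Survival was recorded in each group, and the value is the treated-group measurement divided by that of the vehicle-treated control group.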

[1] = dose: 100.0 mg/kg/injection, schedule: Q01DX009 (ip), vehicle: saline with Tween-80
[2] = dose: 200.0 mg/kg/injection, schedule: Q01DX009 (ip), vehicle: saline with Tween-80
[3] = dose: 400.0 mg/kg/injection, schedule: Q01DX009 (ip), vehicle: saline with Tween-80
[4] = dose: 50.0 mg/kg/injection, schedule: Q01DX009 (ip), vehicle: saline with Tween-80
[5] = dose: 100.0 mg/kg/injection, schedule: Q01DX001 (ip), vehicle: saline with Tween-80
[6] = dose: 200.0 mg/kg/injection, schedule: Q01DX001 (ip), vehicle: saline with Tween-80
[7] = dose: 400.0 mg/kg/injection, schedule: Q01DX001 (ip), vehicle: saline with Tween-80

Measured: T/C

ICC1COC(CI)CO1 (configuration not stated)
inactive: [1] 100 % of control | [2] 104 % of control | [3] 90 % of control

O=C(N/N=c1/sc2ccccc2n1Cc1ccccc1)c1ccncc1
inactive: dose: 6.25 mg/kg/injection, schedule: Q01DX009 (ip), vehicle: Klucel (hydroxypropylcellulose) (HPC) 106 % of control | dose: 12.5 mg/kg/injection, schedule: Q01DX009 (ip), vehicle: Klucel (hydroxypropylcellulose) (HPC) 100 % of control | dose: 25.0 mg/kg/injection, schedule: Q01DX009 (ip), vehicle: Klucel (hydroxypropylcellulose) (HPC) 89 % of control

CCCCn1c(O)c(/C=C2/C=Nc3ccccc32)sc1=O
inactive: [4] 95 % of control | [1] 95 % of control | [2] 97 % of control

N=C(N)c1nn[nH]n1
inactive: dose: 12.5 mg/kg/injection, schedule: Q04DX003 (ip), vehicle: Klucel (hydroxypropylcellulose) (HPC) 100 % of control | dose: 25.0 mg/kg/injection, schedule: Q04DX003 (ip), vehicle: Klucel (hydroxypropylcellulose) (HPC) 100 % of control | dose: 50.0 mg/kg/injection, schedule: Q04DX003 (ip), vehicle: Klucel (hydroxypropylcellulose) (HPC) 97 % of control | dose: 100.0 mg/kg/injection, schedule: Q04DX003 (ip), vehicle: Klucel (hydroxypropylcellulose) (HPC) 103 % of control | dose: 200.0 mg/kg/injection, schedule: Q04DX003 (ip), vehicle: Klucel (hydroxypropylcellulose) (HPC) 100 % of control

CCCCCCCCCCCCO[P+](=O)OCCCCCCCCCCCC
inactive: dose: 50.0 mg/kg/injection, schedule: Q01DX009 (ip), vehicle: saline sonified 110 % of control | dose: 66.0 mg/kg/injection, schedule: Q01DX009 (ip), vehicle: saline with Tween-80 109 % of control | dose: 100.0 mg/kg/injection, schedule: Q01DX009 (ip), vehicle: saline sonified 110 % of control | [1] 100 % of control and 95 % of control | dose: 100.0 mg/kg/injection, schedule: Q04DX003 (ip), vehicle: saline with Tween-80 95 % of control | dose: 150.0 mg/kg/injection, schedule: Q01DX009 (ip), vehicle: saline with Tween-80 100 % of control | [2] 90 % of control | dose: 200.0 mg/kg/injection, schedule: Q04DX003 (ip), vehicle: saline with Tween-80 91 % of control | [3] 90 % of control | dose: 400.0 mg/kg/injection, schedule: Q04DX003 (ip), vehicle: saline with Tween-80 95 % of control

CC(=NCc1ccccc1)c1ccccc1O
inactive: dose: 50.0 mg/kg/injection, schedule: Q01DX009 (ip), vehicle: Klucel (hydroxypropylcellulose) (HPC) 99 % of control | [4] 106 % of control | dose: 100.0 mg/kg/injection, schedule: Q01DX009 (ip), vehicle: Klucel (hydroxypropylcellulose) (HPC) 93 % of control | [1] 116 % of control | dose: 200.0 mg/kg/injection, schedule: Q01DX009 (ip), vehicle: Klucel (hydroxypropylcellulose) (HPC) 92 % of control | [2] 98 % of control | [3] 109 % of control

N#CC(c1ccccc1)C(c1ccccc1)c1cccc2ccccc12 (configuration not stated)
inactive: dose: 6.25 mg/kg/injection, schedule: Q01DX009 (ip), vehicle: suspension in saline 98 % of control | dose: 12.5 mg/kg/injection, schedule: Q01DX009 (ip), vehicle: suspension in saline 97 % of control | dose: 25.0 mg/kg/injection, schedule: Q01DX009 (ip), vehicle: suspension in saline 97 % of control | dose: 50.0 mg/kg/injection, schedule: Q01DX009 (ip), vehicle: suspension in saline 97 % of control | dose: 100.0 mg/kg/injection, schedule: Q04DX002 (ip), vehicle: saline with Tween-80 104 % of control | dose: 200.0 mg/kg/injection, schedule: Q04DX002 (ip), vehicle: saline with Tween-80 101 % of control | dose: 400.0 mg/kg/injection, schedule: Q04DX002 (ip), vehicle: saline with Tween-80 107 % of control

O=C(N/N=C/c1cc(Br)cc(Br)c1O)c1ccccc1
inactive: [5] 96 % of control | [6] 96 % of control | [7] 92 % of control

NC(CCC(=O)O)C(=O)NC(Cc1ccc(O)cc1)C(=O)NC(CCC(=O)O)C(=O)O (stereo not drawn) (H-Glu-Tyr-Glu-OH; configuration not given here)
inactive: dose: 50.0 mg/kg/injection, schedule: Q01DX005 (ip), vehicle: Klucel (hydroxypropylcellulose) (HPC) 93 % of control | dose: 100.0 mg/kg/injection, schedule: Q01DX005 (ip), vehicle: Klucel (hydroxypropylcellulose) (HPC) 100 % of control | dose: 200.0 mg/kg/injection, schedule: Q01DX005 (ip), vehicle: Klucel (hydroxypropylcellulose) (HPC) 98 % of control

Cc1c(C(N)=O)c2ccccc2c2ccccc12
inactive: dose: 12.5 mg/kg/injection, schedule: Q01DX005 (ip), vehicle: saline with Tween-80 109 % of control | dose: 25.0 mg/kg/injection, schedule: Q01DX005 (ip), vehicle: saline with Tween-80 95 % of control | dose: 50.0 mg/kg/injection, schedule: Q01DX005 (ip), vehicle: saline with Tween-80 93 % of control and 95 % of control

OCC(O)COCCCCCCCCCCCCCC1C=CCC1 (configuration not stated)
inactive: dose: 100.0 mg/kg/injection, schedule: Q04DX003 (ip), vehicle: saline 95 % of control | dose: 200.0 mg/kg/injection, schedule: Q04DX003 (ip), vehicle: saline 89 % of control | dose: 400.0 mg/kg/injection, schedule: Q04DX003 (ip), vehicle: saline 96 % of control

NC/C(=N\O)c1ccc2ccccc2c1
inactive: dose: 60.0 mg/kg/injection, schedule: Q01DX005 (ip), vehicle: Klucel (hydroxypropylcellulose) (HPC) 100 % of control | dose: 120.0 mg/kg/injection, schedule: Q01DX005 (ip), vehicle: Klucel (hydroxypropylcellulose) (HPC) 110 % of control | dose: 240.0 mg/kg/injection, schedule: Q01DX005 (ip), vehicle: Klucel (hydroxypropylcellulose) (HPC) 105 % of control

O=C1C=C(Nc2ncccn2)c2ccccc2C1=O
inactive: dose: 6.25 mg/kg/injection, schedule: Q01DX005 (ip), vehicle: Klucel + Tween-80 115 % of control | dose: 12.5 mg/kg/injection, schedule: Q01DX005 (ip), vehicle: Klucel + Tween-80 98 % of control | dose: 25.0 mg/kg/injection, schedule: Q01DX005 (ip), vehicle: Klucel + Tween-80 104 % of control

Cn1c2cc([N+](=O)[O-])ccc2c(=O)c2c(O)cc(O)cc21
inactive: [5] 101 % of control | [6] 92 % of control | [7] 104 % of control

CCCCc1c(O)c2c(=O)[nH]c(C)nc2oc1=O
inactive: dose: 3.75 mg/kg/injection, schedule: Q01DX005 (ip), vehicle: Klucel (hydroxypropylcellulose) (HPC) 96 % of control | dose: 7.5 mg/kg/injection, schedule: Q01DX005 (ip), vehicle: Klucel (hydroxypropylcellulose) (HPC) 95 % of control | dose: 15.0 mg/kg/injection, schedule: Q01DX005 (ip), vehicle: Klucel (hydroxypropylcellulose) (HPC) 92 % of control
